From patent publication US7968535B2, “Use of azapaullones for preventing and treating pancreatic autoimmune disorders” (Develogen Atkiengesellschaft, priority 2005, dated 2011) come the findings set out here.

One assay relates to human GSK3. Description: IC50 Profiler Express kinase assay. Type of assay: biochemical. The conditions noted are these: 10-point curves in duplicate. On the procedure: Experiments were carried out by Upstate Ltd. according to the protocols described in KinaseProfiler™ Assay Protocols, IC50 Profiler Express™ (10-point curves in duplicate) Fall 2004 by Ustate Cell Signaling solutions.

For assay [1], the system named is INS-1E cells. Description: Ins-1E cell proliferation assay (BrdU incorporation). Type of assay: cell-based, rat. On the procedure: The proliferation rate of Ins-1E cells was determined by monitoring DNA synthesis using a 5-bromo-2′-deoxyuridine (BrdU) incorporation assay. BrdU is a halogenated nucleotide analogue of thymidine that is incorporated into DNA during the S-phase of the cell cycle. Pulse-labeling of DNA with BrdU and subsequent immunohistochemical detection of labeled nuclei was used to study the rate of cell proliferation. The treatment of INS-1E cells with 4-Azakenpaullone for 24 hours increases BrdU incorporation of Ins-1E cells in a concentration dependent manner, reaching a maximum of about 1.4 fold between 5 μM and 10 μM 4-AKP.
The proliferation of Ins-1E insulinoma cells was determined by monitoring DNA synthesis as an indirect parameter of cell proliferation. The incorporation of the thymidine analogue 5-bromo-2′-deoxyuridine (BrdU) during replication into cellular DNA was used to label the DNA of mitotically active cells. After its incorporation into DNA, BrdU was detected by immunoassay.
10,000 Ins-1E cells were seeded per 96-well (black 96-well tissue culture plates, Falcon #353948) in 100 μl culture medium (RPMI 1640 containing 11 mM glucose, 5% FCS, 10 mM HEPES, 50 μM 2-mercaptoethanol, 1 mM MEM sodium pyruvate, 100 U/ml penicillin, 100 μg/ml streptomycin) and cultivated at 37° C., 5% CO2 in humidified atmosphere for 3 days. Media was changed to 100 μl starvation medium (culture medium with only 5 mM glucose, 1% FCS) and the cells were re-incubated for 1 day. Then media was exchanged to starvation medium containing test substances and the cells were further incubated for 24 h. For the last 4 hours BrdU was added to reach a concentration of 10 μM. Cell proliferation ELISA (Cell Proliferation ELISA, BrdU, chemiluminescence, Roche, cat. No. 1669915) was performed according to the manufacturers guidelines.
Background: Dividing cells build labelled thymidine or BrdU into new DNA.

Assay [2] has as its system INS-1E cells. Description: Cell number by CyQuant assay. Conditions: 24 hours. It is filed as cell-based, rat. On the procedure: (§1) The effects of the substance on cell viability, cell growth and specific apoptotic events such as caspases activity and DNA-fragmentation was monitored. INS-1E cell apoptosis was induced by treatment of cell cultures with toxic concentrations of glucose and palmitate for 24 hours. The substance of interest was added to the medium 1 hour prior to the addition of the toxic agents.
(§2) 10,000 Ins-1E cells were seeded per 96-well (black 96-well tissue culture plates, Falcon #353948) in 100 μl culture medium (RPMI 1640 containing 11 mM glucose, 5% FCS, 10 mM HEPES, 50 μM 2-mercaptoethanol, 1 mM MEM sodium pyruvate, 100 U/ml penicillin, 100 μg/ml streptomycin) and cultivated at 37° C., 5% CO2 in humidified atmosphere for 3 days. Media was changed to 100 μl starvation medium (culture medium with only 5 mM glucose, 1% FCS) and the cells were re-incubated for 1 day. Then media was exchanged to starvation medium containing test substances. […]
Cell number was measured by staining of cellular DNA with CyQuant dye (CyQuant Cell Proliferation Assay Kit, Molecular Probes, cat. No. C-7026) which becomes fluorescent when bound to DNA. […]

Assay [3] relates to INS-1E cells. The assay is described as follows: Viability by Alamar Blue reduction under glucose/palmitate. It is filed as cell-based, rat. Conditions: 24 hours. On the procedure:
as §1, §2
Viability was assessed by mitochondric reduction of the non toxic dye Alamar Blue (Bioscource, cat. No. DAL1025). The dye was added to the cells 4 hours before read-out according to the manufacturers guidelines. Basal fluorescence was measured immediately to be subtracted from the fluorescence after 4 hours. […]
On the technique in general: Resazurin is reduced to fluorescent resorufin, in cell work by metabolically active cells.

Assay [4] deals with INS-1E cells. The assay is described as follows: DNA-fragmentation ELISA in glucose/palmitate stressed cells. Type of assay: cell-based, rat. Conditions: glucose/palmitate 24 hours; for reduction of cytosolic DNA-fragments: 20 μM. The method, then:
as §1
DNA-fragmentation is a comparatively late apoptotic event comprising storage of nucleosomal DNA-fragments as mono- and oligo nucleosomes in the cytoplasm. The incubation of INS1-E cells with high concentrations of glucose and palmitate for 24 hours leads to DNA breakdown and the accumulation of nucleosomal DNA fragments in the cytoplasm. The detectable amount of cytosolic nucleosomal DNA fragments was reduced by about 17%, when cells were treated with the apoptosis inducing agents in combination with 10 μM 4-AKP.
(§3) 10,000 Ins-1E cells were seeded per 96-well (black 96-well tissue culture plates, Falcon #353948) in 100 μl culture medium (RPMI 1640 containing 11 mM glucose, 5% FCS, 10 mM HEPES, 50 μM 2-mercaptoethanol, 1 mM MEM sodium pyruvate, 100 U/ml penicillin, 100 μg/ml streptomycin) and cultivated at 37° C., 5% CO2 in humidified atmosphere for 3 days. Media was changed to 100 μl starvation medium (culture medium with only 5 mM glucose, 1% FCS) and the cells were re-incubated for 1 day. Then media was exchanged to starvation medium containing test substances.
(§4) Apoptosis of Ins-1E cells was induced by addition of a combination of BSA coupled palmitate and glucose (pal/gluc) or a combination of cytokines (cyt) 1 hour after starting the treatment with test substances: pal/gluc: 0.3 mM palmitate:BSA (palmitic acid sodium salt:fatty acid free BSA 6:1) and 25 mM glucose. 10×cyt: 0.04 ng/ml IL-1β and 1 ng/ml IFNγ. The cells were further incubated with test substances and apoptotic inducer for 24 hours.
DNA-fragmentation is a late apoptotic event comprising storage of nucleosomal DNA-fragments as mono- and oligo nucleosomes in the cytoplasm. Their concentration was determined by ELISA (Cell death detection ELISA, Roche, cat. No. 1774425) according to the manufacturers guidelines.
A general note: ELISA stands for enzyme-linked immunosorbent assay.

In assay [5] the test system is INS-1E cells. The assay is described as follows: Caspase activity assay in glucose/palmitate stressed cells. It is filed as cell-based, rat. On the procedure:
as §1
Caspase activation is a characteristic of early apoptotic cells. The experiment was carried out as described above with the exception that the caspases activity assay was applied instead of the DNA-fragmentation assay (see Example 3 for details).
as §3, §4
Caspase activity is a characteristic of early apoptotic cells. Their activity was quantified by an enzymatic assay (homogeneous caspases assay, Roche, cat. No. 03 005 372 001). Caspase activity was measured 3 hours after addition of caspases substrate according to the manufacturers guidelines.

The test system of assay [6] is INS-1E cells. The assay is described as follows: Glucolipotoxicity induced apoptosis of INS-1E cells (overall assessment). Type of assay: cell-based, rat. Conditions: palmitate and glucose, 24 hours. The method, then: as §1
The effects of the test compounds on beta cell function were assessed using biological assays monitoring cellular metabolic activity as well as specific apoptotic events in Ins-1E cells.
as §3, §4

Assay [7] has as its system cyclin-dependent kinases (CDKs). The assay is described as follows: KinaseProfiler biochemical kinase activity assays. The method, then: (§5) Experiments were carried out by Upstate Ltd. according to the protocols described in KinaseProfiler™ Assay Protocols Fall 2004 by Ustate Cell Signaling solutions.
(§6) Compounds 10c and e are structurally very similar to 1-Azakenpaullone and differ only by one substituent at position 9 of the D ring from their template 1-Azakenpaullone. […] These kinases were selected among about 250 different kinases based on their structural or functional similarity to GSK3, e.g. all available members of the CDK family were included in the survey because CDKs are most similar to GSK3 and several kinase inhibitors are known that inhibit members of both families. The direct comparison of different compounds in such an experiment provides information on the relative selectivity of the respective compounds.

For assay [8], the system named is panel of 28 protein kinases. Description: KinaseProfiler biochemical kinase activity assays. The conditions noted are these: tested in parallel with 1-Azakenpaullone. The method, then: as §5, §6

On to `O=C1Cc2c([nH]c3ccc(Br)cc23)-c2ncccc2N1` [1-Azakenpaullone, reference compound], for which the “inhibition of human GSK3” value in the assay on human GSK3 is on record as “potent inhibitor”.

With `O=C1Cc2c([nH]c3ccc(Br)cc23)-c2cccnc2N1` [4-Azakenpaullone, reference compound], in the assay with INS-1E cells [1] (24 hours, maximum between 5 μM and 10 μM), the “BrdU incorporation relative to untreated controls (maximum)” value is recorded as “about 1.4 fold”. In addition, in the assay with INS-1E cells [2], the “increase in cell-number relative to untreated controls” value amounted to 1.2 fold. Moreover, in the assay on INS-1E cells [3], the “viability of Ins-1E cells subjected to apoptosis inducing concentrations of glucose and palmitate” value is given as “slightly improves the viability”. The “reduction of cytosolic nucleosomal DNA fragments” value in the assay on INS-1E cells [4] (10 μM) is on record as “about 17%”. Moreover, the “reduction of caspase activity” value in the assay with INS-1E cells [5] (10 μM) came out at 18%. Besides, the “effect on glucolipotoxicity induced apoptosis” value (“effect” below) in the assay on INS-1E cells [6] is recorded as “slightly antagonizes apoptotic processes”.

Regarding `COc1ccc2[nH]c3c(c2c1)CC(=O)Nc1cccnc1-3` [Compound 10a, 9-Methoxy-7,12-dihydro-pyrido[3′,2′:2,3]azepino[4,5-b]indole-6(5H)-one], in the assay on INS-1E cells [1], the “proliferation of INS-1E cells (in words)” value is “small effect”. The “BrdU incorporation relative to untreated controls (maximum)” value in the assay on INS-1E cells [1] (at about 10 μM) is listed as “about 1.2 fold”. Besides, the “reduction of cytosolic DNA-fragments” value in the assay with INS-1E cells [4] is recorded as 44%. Also, the “reduction of caspase activity” value in the assay on INS-1E cells [5] (20 μM) turned out to be 22%. The “effect” value in the assay on INS-1E cells [6] is on record as “moderately prevents glucolipotoxicity induced apoptosis”.

Consider `O=C1Cc2c([nH]c3ccc(O)cc23)-c2ncccc2N1` [Compound 10d, 9-Hydroxy-7,12-dihydropyrido[3′,2′:2,3]azepino[4,5-b]indole-6(5H)-one], for which, in the assay on INS-1E cells [4], the “reduction of cytosolic DNA-fragments” value was 23%. The “reduction of caspase activity” value in the assay on INS-1E cells [5] (20 μM) is listed as 27%. Also, in the assay on INS-1E cells [6], the “effect” value was “slightly effects glucolipotoxicity induced apoptosis”.

Regarding `O=C1Cc2c([nH]c3ccc(Cl)cc23)-c2ncccc2N1` [Compound 10e, 9-Chloro-7,12-dihydropyrido[3′,2′:2,3]azepino[4,5-b]indole-6(5H)-one], the “BrdU incorporation relative to untreated controls (maximum)” value in the assay with INS-1E cells [1] (maximum between 1 μM and 10 μM) was “about 1.7 fold”. Besides, the “reduction of cytosolic DNA-fragments” value in the assay with INS-1E cells [4] was 23%. Moreover, the “reduction of caspase activity” value with INS-1E cells [5] (20 μM) is 16%. Moreover, the “effect” value in the assay with INS-1E cells [6] was “slightly prevents glucolipotoxicity induced apoptosis”. In addition, the “inhibition of cyclin-dependent kinases (CDKs)” value in assay [7] was “significantly inhibits”. The “kinase selectivity / activity profile” value in assay [8] was “selective kinase inhibitors”.

In the case of `O=C1Cc2c([nH]c3ccc(C(F)(F)F)cc23)-c2ncccc2N1` [Compound 10l, 9-Trifluoromethyl-7,12-dihydropyrido[3′,2′:2,3]azepino[4,5-b]indol-6(5H)-one], the “BrdU incorporation relative to untreated controls (maximum)” value with INS-1E cells [1] (maximum between 1 μM and 5 μM) is “about 1.4 fold”. In addition, the “effect” value with INS-1E cells [6] was “significantly effects glucolipotoxicity induced apoptosis”.
